The source of these data is patent US9868705B2, “Tetra-aryl cyclobutane inhibitors of androgen receptor action for the treatment of hormone refractory cancer” (The Board of Trustees of the University of Illinois, priority 2013, dated 2018).

Assay type in all cases: cell-based
The target in test [1] is T1, T877A mutant androgen receptor (Homo sapiens, UniProt P10275, T878A).
T1 construct: endogenous in cells; host or cells: LNCaP-XIP
T1 sequence (P10275 1-920 T878A): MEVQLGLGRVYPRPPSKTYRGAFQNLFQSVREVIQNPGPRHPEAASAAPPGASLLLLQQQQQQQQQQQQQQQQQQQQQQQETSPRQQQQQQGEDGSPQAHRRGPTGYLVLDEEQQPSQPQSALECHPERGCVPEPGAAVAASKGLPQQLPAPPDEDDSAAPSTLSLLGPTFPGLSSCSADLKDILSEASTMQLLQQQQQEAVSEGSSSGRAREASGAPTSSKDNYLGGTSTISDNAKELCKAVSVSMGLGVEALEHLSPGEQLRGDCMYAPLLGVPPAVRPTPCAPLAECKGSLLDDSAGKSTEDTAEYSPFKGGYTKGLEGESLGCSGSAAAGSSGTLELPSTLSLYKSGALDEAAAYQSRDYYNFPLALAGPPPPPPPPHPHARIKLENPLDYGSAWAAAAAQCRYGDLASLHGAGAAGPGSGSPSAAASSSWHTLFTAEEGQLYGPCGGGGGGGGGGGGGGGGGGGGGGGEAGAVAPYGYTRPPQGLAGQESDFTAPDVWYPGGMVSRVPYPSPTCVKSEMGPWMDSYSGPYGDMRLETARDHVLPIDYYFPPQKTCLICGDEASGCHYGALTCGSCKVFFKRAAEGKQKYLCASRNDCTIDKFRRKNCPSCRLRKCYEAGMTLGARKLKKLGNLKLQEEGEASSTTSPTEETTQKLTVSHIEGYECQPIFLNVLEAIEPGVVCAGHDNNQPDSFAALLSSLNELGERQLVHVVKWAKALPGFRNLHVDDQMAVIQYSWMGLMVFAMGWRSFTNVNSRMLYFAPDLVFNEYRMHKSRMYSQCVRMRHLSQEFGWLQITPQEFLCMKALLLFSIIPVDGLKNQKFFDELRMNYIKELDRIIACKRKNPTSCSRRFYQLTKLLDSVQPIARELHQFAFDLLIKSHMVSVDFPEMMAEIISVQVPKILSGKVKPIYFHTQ
Briefly: FKBP51 endogenous gene expression in LNCaP-XIP cells. An excerpt:
FIG. 44 depicts data for dose-dependent inhibition of androgen receptor-dependent endogenous gene expression of FKBP51 by Compound 1 of Example IV in LNCaP cells producing exclusively T877A mutant androgen receptor (LNCaP-XIP) and LNCaP cells transfected with wild type androgen receptor (LNCaP-androgen receptor, ratio of wild type to T877A receptor is ca. 3:1).
To more fully characterize the selectivity of compound 1 for the mutant receptor, we measured its inhibitory potential against the WT and T877A mutant receptor in an AR-dependent luciferase transcription assay in CV-1 cells (FIGS. 43A and B).

The target in another test is T2, T877A (LNCaP) AR (Homo sapiens, UniProt P10275, T878A).
T2 construct: expressed in transfected cells; host or cells: CV-1
T2 sequence (P10275 1-920 T878A): T1 sequence (P10275 1-920 T878A)
Briefly: MMTV-luciferase transcription assay in CV-1 cells, T877A AR. The text has this: These compounds were screened using an AR-responsive MMTV transcription assay in CV-1 cells, utilizing both wild type and T877A (LNCaP) AR. […]

A further test has as its target T3, AR (Homo sapiens, UniProt P10275).
T3 sequence (P10275 1-920): T1 sequence (P10275 1-920 T878A) with A878T
The experiment in a line: Western blot analysis of AR degradation.

Structures are written as SMILES. Positions count from the first letter of the chain named. Where two headings read alike, the source gives them in different places.

In the case of `COc1cc([C@H]2[C@H](c3ccccc3)[C@H](c3cc(OC)nc(OC)n3)[C@H]2c2ccccc2)nc(OC)n1` [CB-22], the “concentration at which maximal inhibition is obtained” value in test [1] (FKBP51 expression, T877A mutant receptor) came out at 2 µM. Further, the “inhibition of FKBP51 gene expression” value in test [1] (LNCaP-XIP, 2 μM) is “complete inhibition”. On T877A (LNCaP) AR (AR-dependent luciferase transcription assay in CV-1 cells), the “increase in potency for T877A mutant over WT” value is reported as “approximately 10 fold”. For the same compound, the IC50 amounted to 0.81 µM on T877A (LNCaP) AR (CV1 transient transfection, MMTV-Luciferase reporter, read-out: IC50 T877A) and 1.1 µM at T877A (LNCaP) AR (T877A AR, values given in μM, read-out: MMTV transcription assay in CV-1 cells T877A (IC50)). Also, the “rate of receptor proteolysis” value on AR was “does not influence the rate of receptor proteolysis”.
